Earlier results on two compounds are cited in patent US20160374912A1, “TOPICALLY APPLICABLE CHEMICAL PEEL COMPOSITION” (L'OREAL, priority 2015, published 2016).

Assay in data set [1]: not given
The source holds these as a separate data set.

The term Log P denotes a log measure of how a compound divides between an organic and an aqueous phase. Take `CC(c1ccccc1)c1ccc(O)cc1O` (stereo not shown) [Phenylethyl Resorcinol]: the pKA is recorded as 9.77-10.77. The “Log P” value in data set [1] is on record as 2.11.
Take `Oc1cccc(O)c1` [Resorcinol]: the pKA was 9.32-9.81. In addition, the “Log P” value in data set [1] was 2.47.
